The values below are quoted from earlier work in patent publication US20220288056A1, “PHARMACEUTICAL COMPOSITION CONTAINING NITROXOLINE, NITROXOLINE ORAL SOLID TABLET, PREPARATION METHOD THEREFOR AND USE THEREOF” (Jiangsu Yahong Meditech Co., Ltd., priority 2019, published 2022).

Data set [1] concerns the target T1, silence information regulator 2-related enzyme SIRT1 (Homo sapiens, UniProt Q96EB6).
T1 construct: host or cells: vascular endothelial cells
T1 sequence (Q96EB6 1-747): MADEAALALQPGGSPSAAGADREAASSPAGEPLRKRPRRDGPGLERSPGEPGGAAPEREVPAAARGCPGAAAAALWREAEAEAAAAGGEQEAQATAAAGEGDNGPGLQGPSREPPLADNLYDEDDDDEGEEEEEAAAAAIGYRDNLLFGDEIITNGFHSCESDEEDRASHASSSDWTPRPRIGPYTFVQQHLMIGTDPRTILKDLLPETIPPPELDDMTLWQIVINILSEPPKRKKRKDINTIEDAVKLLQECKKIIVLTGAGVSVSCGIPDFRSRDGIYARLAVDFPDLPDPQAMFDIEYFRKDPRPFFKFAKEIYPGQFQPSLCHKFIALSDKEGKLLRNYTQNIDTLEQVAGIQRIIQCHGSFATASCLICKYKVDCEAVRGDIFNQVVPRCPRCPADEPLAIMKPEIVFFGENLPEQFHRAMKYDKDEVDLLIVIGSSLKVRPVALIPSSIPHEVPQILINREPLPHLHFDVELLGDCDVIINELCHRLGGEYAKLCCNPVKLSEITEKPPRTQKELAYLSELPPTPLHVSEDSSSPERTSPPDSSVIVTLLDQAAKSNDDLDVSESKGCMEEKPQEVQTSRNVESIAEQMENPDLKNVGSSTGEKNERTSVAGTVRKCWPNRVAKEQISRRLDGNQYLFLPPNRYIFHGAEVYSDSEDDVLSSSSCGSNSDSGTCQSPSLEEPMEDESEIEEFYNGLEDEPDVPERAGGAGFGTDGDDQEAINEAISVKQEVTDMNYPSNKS
The conditions noted are these: vascular endothelial cells.

The target in data set [2] is T2, methionine aminopeptidase MetAP2 (Homo sapiens, UniProt P50579).
T2 construct: host or cells: vascular endothelial cells
T2 sequence (P50579 whole entry): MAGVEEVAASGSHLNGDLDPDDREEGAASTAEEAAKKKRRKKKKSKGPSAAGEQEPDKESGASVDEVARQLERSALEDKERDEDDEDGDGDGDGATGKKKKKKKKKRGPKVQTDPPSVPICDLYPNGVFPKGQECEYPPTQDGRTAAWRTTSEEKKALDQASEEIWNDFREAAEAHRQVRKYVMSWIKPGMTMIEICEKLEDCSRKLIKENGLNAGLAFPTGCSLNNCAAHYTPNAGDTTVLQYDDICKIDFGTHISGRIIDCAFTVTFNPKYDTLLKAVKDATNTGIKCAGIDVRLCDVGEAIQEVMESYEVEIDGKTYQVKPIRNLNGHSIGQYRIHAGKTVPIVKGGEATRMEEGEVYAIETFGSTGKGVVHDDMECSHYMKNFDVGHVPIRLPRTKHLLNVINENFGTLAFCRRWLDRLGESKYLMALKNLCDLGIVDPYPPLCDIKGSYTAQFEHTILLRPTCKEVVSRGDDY
To be noted: vascular endothelial cells.

Regarding `O=[N+]([O-])c1ccc(O)c2ncccc12` [Nitroxoline, 5-nitro-8-hydroxyquinoline], the “inhibition of SIRT1” value in data set [1] is “inhibit”. Moreover, the “inhibition of MetAP2” value in data set [2] is listed as “inhibit”.
